Legend:
HL60 cells = experiment: Anti-cancer activity test, MTT, HL60 cells; type: cell-based; details: Homo sapiens, HL-60, culturing for 72 hours
Protocol: (§1) Cell culture medium: Roswell medium RPMI-1640 (+L-glutamine) was added with 10% fetal bovine serum, with 100 units penicillin and 100 μg streptomycin per ml.
(§2) Cell culture conditions: 5% CO2, 95% humidity, cultured at 37° C. constant temperature.
(§3) 2. Cell Inoculation, Drugs Dosing and Culture.
(§4) Logarithmic growth phase HL-60, human chronic myeloid leukemia cells (K562), human esophageal squamous cell carcinoma cells (KYSE510), human large cell lung cancer cells (H460) were inoculated into 96-well cell culture plates, 2×10^4 cells per well. Different concentrations of active compounds (dissolved in dimethyl sulfoxide (DMSO) stock solution) were added, so that the final concentration of DMSO was 0.2%, and the control group was DMSO. Each group was repeated three times.
(§5) After culturing for 72 hours, 20 µL of thiazolyl blue (MTT) (5 mg/ml, ready for use, dissolved in 1×PBS for cell culture) was added to each well, and incubated at 37° C. for 3 hours.
(§6) The 96-well cell culture plates were centrifuged at 1000 rpm for 10 minutes. The supernatant was discarded; 200 μL of DMSO was added to each well and the plate was shaken for 5 minutes.
(§7) The absorbance of each well was detected at 570 nm wavelength with a microplate reader, and the IC50 of the compounds was calculated.

[1] = target: c-Myc370-412-biotin peptide (Homo sapiens (Human), UniProt P01106); experiment: SPR binding affinity on c-Myc protein; details: c-Myc370-412-biotin peptide immobilized, 1.00×PBS-P buffer (5% DMSO)
Sequence of c-Myc370-412-biotin peptide (P01106 385-427): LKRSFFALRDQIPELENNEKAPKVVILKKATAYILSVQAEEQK
Protocol: 1. Experiment Preparation
10×PBS-P was diluted into 1.05×PBS-P buffer solution for later use. The c-Myc370-412-biotin peptide was dissolved in chromatographic pure DMSO to prepare a 1 mM stock solution. The molecules were dissolved in chromatographic pure DMSO to prepare a 10 mM stock solution. Part of 1.05×PBS-P buffer was added to chromatographic pure DMSO to prepare 1.00×PBS-P buffer (5% DMSO, ready for use).
The highest solubility of each small molecule in the 1.00×PBS-P buffer (5% DMSO) system was tested respectively. This solubility was used as the highest concentration tested for small molecule activity.
2. Protein Immobilization
The c-Myc370-412-biotin peptide stock solution was added to 1.05×PBS-P buffer to prepare a 50 μM solution, and then diluted with 1.00×PBS-P buffer (5% DMSO) to […] for protein immobilization.
After washing the sample channel and reference channel of the chip with 1.00×PBS-P buffer (5% DMSO), an automatic mode was used to immobilize the protein in the sample channel. The target amount of the immobilized protein was 500RU. The immobilization was successful. The buffer was used continuously to flush until equilibrium.
3. Small Molecule Activity Test.
Buffer was used to prepare different concentrations of small molecule compounds for sample testing. The system was 1.00×PBS-P buffer (5% DMSO). The difference was detected between the response of small molecules flowing through the sample channel and the reference channel.
The experimental conditions were a flow rate of 30 μL/min, binding time of 120 seconds, and dissociation time of 240 seconds. After each binding and dissociation test, 50% DMSO was used to flush the tubing, and 10 mM glycine-HCl buffer (pH 2.1) was used to flush the surface of the chip to wash away the remaining compound molecules.

c-Myc and Max = c-Myc and Max (Homo sapiens (Human), UniProt P01106); experiment: Competition for the binding of c-Myc and Max
Sequence of c-Myc and Max (P01106 whole entry): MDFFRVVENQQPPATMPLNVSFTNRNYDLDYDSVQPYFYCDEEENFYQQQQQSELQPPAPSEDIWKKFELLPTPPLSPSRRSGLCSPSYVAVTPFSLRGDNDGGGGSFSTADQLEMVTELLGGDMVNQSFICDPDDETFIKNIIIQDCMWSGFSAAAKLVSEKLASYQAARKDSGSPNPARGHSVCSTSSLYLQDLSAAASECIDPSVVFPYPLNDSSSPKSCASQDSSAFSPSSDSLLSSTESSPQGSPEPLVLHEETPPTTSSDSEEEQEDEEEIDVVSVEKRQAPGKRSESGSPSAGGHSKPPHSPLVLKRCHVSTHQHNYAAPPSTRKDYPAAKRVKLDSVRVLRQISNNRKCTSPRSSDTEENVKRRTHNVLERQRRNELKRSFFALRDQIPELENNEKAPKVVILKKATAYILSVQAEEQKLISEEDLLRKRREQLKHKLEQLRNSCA

c-Myc protein = c-Myc protein (Homo sapiens (Human), UniProt P01106); experiment: Degradation of c-Myc protein
Sequence of c-Myc protein (P01106 whole entry): as above

[2] = test system: tumor cells with high expression of c-Myc; experiment: Inhibition of tumor cells with high expression of c-Myc; type: cell-based
[3] = test system: human chronic myeloid leukemia cells (K562); experiment: Anti-cancer activity test, MTT, K562 cells; type: cell-based; details: culturing for 72 hours
Protocol: as §1, §2, §3, §4, §5, §6, §7

[4] = test system: human esophageal squamous cell carcinoma cells (KYSE510); experiment: Anti-cancer activity test, MTT, KYSE510 cells; type: cell-based; details: KYSE-510, culturing for 72 hours
Protocol: as §1, §2, §3, §4, §5, §6, §7

[5] = test system: human large cell lung cancer cells (H460); experiment: Anti-cancer activity test, MTT, H460 cells; type: cell-based; details: NCI-H460, culturing for 72 hours
Protocol: as §1, §2, §3, §4, §5, §6, §7

c-Myc peptide LE40 = c-Myc peptide LE40 (Homo sapiens, UniProt P01106); experiment: Single-cycle binding kinetics with c-Myc peptide LE40
[6] = target: c-Myc peptide LE40 (S373A) (Homo sapiens, UniProt P01106, S373A); experiment: Single-cycle binding kinetics with c-Myc peptide LE40 (S373A)

SMILES | IC50 (HL60 cells) [nM] | Kd [1] [nM] | also measured
CC(C)C[C@H](NC(=O)[C@H](Cc1cn(C(c2ccccc2)(c2ccccc2)c2ccccc2)cn1)NC(=O)OCC1c2ccccc2-c2ccccc21)B1O[C@@H]2C[C@@H]3C[C@@H](C3(C)C)[C@]2(C)O1 [Compound A4] | < 100 | < 100 | –
CC(C)C[C@H](NC(=O)[C@H](CC(C)C)NC(=O)CC1c2ccccc2-c2ccccc21)B(O)O [Compound A67] | < 100 | – | IC50 [3]: < 100 nM; IC50 [4]: < 100 nM; IC50 [5]: < 100 nM
CC(C)C[C@H](NC(=O)[C@H](Cc1c[nH]c2ccccc12)NC(=O)CC1CCCC1)B(O)O [Compound A69] | < 100 | – | IC50 [3]: < 100 nM; IC50 [4]: < 100 nM; IC50 [5]: < 100 nM
CC(C)C[C@H](NC(=O)[C@H](Cc1c[nH]c2ccccc12)NC(=O)c1ccncc1)B1O[C@@H]2C[C@@H]3C[C@@H](C3(C)C)[C@]2(C)O1 [Compound A33] | 500 to 2000 | – | –
CC(C)C[C@H](NC(=O)[C@H](CC(C)C)NC(=O)Cn1c2cc(Cl)ccc2c2ccc(Cl)cc21)B(O)O [Compound A100] | 500 to 2000 | – | –
CC(C)C[C@H](NC(=O)[C@H](CC(C)C)NC(=O)Cn1c2ccccc2c2ncccc21)B1O[C@@H]2C[C@@H]3C[C@@H](C3(C)C)[C@]2(C)O1 [Compound A63] | 100 to 500 | – | –

The next lines start with results.

IC50 (HL60 cells) [nM] | Kd [1] [nM] | SMILES | also measured
< 100 | < 100 | CC(C)C[C@H](NC(=O)[C@H](CCC(=O)NC(c1ccccc1)(c1ccccc1)c1ccccc1)NC(=O)OCC1c2ccccc2-c2ccccc21)B1O[C@@H]2C[C@@H]3C[C@@H](C3(C)C)[C@]2(C)O1 [Compound A6] | –
< 100 | – | CC(C)C[C@H](NC(=O)[C@H](CCCCNC(=O)OC(C)(C)C)NC(=O)OCC1c2ccccc2-c2ccccc21)B1O[C@@H]2C[C@@H]3C[C@@H](C3(C)C)[C@]2(C)O1 [Compound A13] | competition for the binding of c-Myc and Max (c-Myc and Max): can compete for the binding of c-Myc and Max; degradation of c-Myc protein (c-Myc protein): promote the degradation of c-Myc protein; selective inhibition of tumor cells with high expression of c-Myc [2]: selectively inhibits tumor cells with high expression of c-Myc
< 100 | – | CC(C)C[C@H](NC(=O)[C@H](CC(C)C)NC(=O)OCC1c2ccccc2-c2ccccc21)B1O[C@@H]2C[C@@H]3C[C@@H](C3(C)C)[C@]2(C)O1 [Compound A10] | IC50 [3]: < 100 nM; IC50 [4]: < 100 nM; IC50 [5]: < 100 nM
< 100 | 100 to 500 | CSCC[C@H](NC(=O)OCC1c2ccccc2-c2ccccc21)C(=O)N[C@@H](CC(C)C)B1O[C@@H]2C[C@@H]3C[C@@H](C3(C)C)[C@]2(C)O1 [Compound A5] | Kd (c-Myc peptide LE40): 160 nM; binding (single-cycle binding kinetic curve) [6]: no obvious binding; degradation of c-Myc protein (c-Myc protein): promote the degradation of c-Myc protein
< 100 | < 100 | CC(C)C[C@H](NC(=O)[C@H](CCC(=O)OC(C)(C)C)NC(=O)OCC1c2ccccc2-c2ccccc21)B1O[C@@H]2C[C@@H]3C[C@@H](C3(C)C)[C@]2(C)O1 [Compound A7] | –
500 to 2000 | 100 to 500 | CC(C)C[C@H](NC(=O)[C@H](CSC(c1ccccc1)(c1ccccc1)c1ccccc1)NC(=O)OCC1c2ccccc2-c2ccccc21)B1O[C@@H]2C[C@@H]3C[C@@H](C3(C)C)[C@]2(C)O1 [Compound A3] | –
2000 to 10000 | – | CC(C)C[C@H](NC(=O)OCC1c2ccccc2-c2ccccc21)C(=O)N1CCC[C@H]1B1O[C@@H]2C[C@@H]3C[C@@H](C3(C)C)[C@]2(C)O1 [Compound A49] | –
< 100 | 100 to 500 | CC(C)C[C@H](NC(=O)[C@@H](NC(=O)OCC1c2ccccc2-c2ccccc21)[C@@H](C)OC(C)(C)C)B1O[C@@H]2C[C@@H]3C[C@@H](C3(C)C)[C@]2(C)O1 [Compound A2] | –
100 to 500 | – | CC(C)C[C@H](NC(=O)[C@H](CC(N)=O)NC(=O)CC1c2ccccc2-c2ccccc21)B1O[C@@H]2C[C@@H]3C[C@@H](C3(C)C)[C@]2(C)O1 [Compound A38] | –

From patent US12570673B2, “c-Myc protein inhibitor, and preparation method therefor and use thereof” (SUZHOU KINTOR PHARMACEUTICALS, INC., priority 2019, dated 2026)
